The values that follow are results of earlier work, collected in patent US20090022788A1, “DIETARY SUPPLEMENT FOR HEALING OR REGRESSING SYMPTOMS OF GASTROESOPHAGEAL REFLUX DISEASE, GASTRITIS AND ULCERS” (priority 2006, published 2009).

This series concerns spontaneous gastric ulcers. As to conditions: young pigs, 4-week administration in the diet.

For `COc1ccc2[nH]cc(CCNC(C)=O)c2c1` [melatonin, N-Acetyl-5-methoxytryptamine], the “incidence of spontaneous gastric ulcers” value is recorded as “significantly reduced”.
